Experimental data from US4496545A, “Nonapeptide for treating addictive drug withdrawal conditions” (priority 1981, dated 1985).
Where no end group is shown, it is not given here.

Assays:
morphine-dependent mouse = assay: Inhibition of the naloxone-triggered withdrawal leaps of the morphine-dependent mouse; assay type: in vivo; details: 30 mg/kg s.c. 30 minutes before naloxone; median leaps vs NaCl control
From the text: An opiate-dependent organism for example reacts the same irrespective of species on the sudden withdrawal of the opiate (e.g. morphine) with withdrawal symptoms, i.e. addictive drug withdrawal conditions. In the course of this occurrence central and peripheral symptoms appear, of which the most striking in the mouse is a series of violent leaps (the so-called "jumping"). The number of leaps per time interval is proportional to the intensity of the withdrawal effect and their enumeration enables the incident to be evaluated quantitatively.
In order to produce the dependence a compressed tablet, which contained 75 mg of morphine (base) and which progressively dissolved with continuous liberation of the morphine, was implanted under the dorsal skin of male mice (weight about 22 g). On the third day after the implantation the morphine antagonist naloxone in a dosage of 0.1 mg/kg was administered subcutaneously to the animals in order to trigger off the withdrawal leaps.
After the injection, the leaps of each individual animal were counted for 20 minutes. The group median value was calculated from the total leaps of 8 animals, which formed a group. […] The dosage median values and, respectively, control median values were calculated from all individual values per dosage and, respectively, the positive and negative controls.

rats [1] = assay: Toxicological study, daily intravenous administration for 4 weeks, rats; details: maximum dosage (6 mg/kg i.v. daily for 4 weeks)
Experimental: (§1) Toxicological studies were carried out on 12 male and 12 female rats as well as on 3 male and 3 female dogs per dosage. For this purpose DSIP was dissolved in physiological sodium chloride solution and administered intravenously daily for 4 weeks in the dosages of 0.6, 1.8 and 6 mg/kg. At an interval of 2 weeks during these studies the hematological, hematochemical and the urine status were determined, and the electrocardiogram was recorded and analyzed.
(§2) At the termination of the aforementioned studies all animals were painlessly killed and there followed the autopsy besides the removal of organ samples for histological investigations.

dogs [2] = assay: Toxicological study, daily intravenous administration for 4 weeks, dogs; details: maximum dosage (6 mg/kg i.v. daily for 4 weeks)
Experimental: as §1, §2

dogs [3] = details: dog, in vivo
Experimental: as §1, §2

rats [4] = details: rat, in vivo
Experimental: as §1, §2

[5] = system: alcoholic or methadone- or heroin-dependent patients; details: human, in vivo
Experimental: Of the 25 alcoholic patients 8 were on admission already in delirium tremens to a medium to severe degrees. After the first subjective and objective withdrawal signs manifested themselves the patients received up to 4 intravenous infusions of in each case 0.0214 mg/kg of DSIP daily. For this purpose, the substance was dissolved in physiological sodium chloride solution and infused in the course of 5 minutes.
The duration of treatment amounted to a maximum of 3 days.

| Molecule | % of negative control (morphine-dependent mouse) [%] | Electrocardiogram (rats [1]) | Electrocardiogram (dogs [2]) | Tolerability of the dosages (dogs [3]) | Tolerability of the dosages (rats [4]) | Tolerance of DSIP: poor [5] [patients] |
| --- | --- | --- | --- | --- | --- | --- |
| CN1CC[C@]23c4c5ccc(O)c4O[C@H]2[C@@H](O)C=C[C@H]3[C@H]1C5 [Morphine] | 27 |  |  |  |  |  |
| WAGGDASGE [DSIP, Trp-Ala-Gly-Gly-Asp-Ala-Ser-Gly-Glu] |  | no changes in the electrocardiogram | no changes in the electrocardiogram | tolerated without any side effects | tolerated without any side effects | 2 |
